Measurements from patent US20050171195A1, “P2X7 antagonists for treating neuropathic pain” (priority 2003, published 2005).

Tests used:
P2X7 receptor = molecular target: T1, P2X7 receptor (Homo sapiens, UniProt Q99572); test: P2X7 mediated pore formation (YO-PRO dye uptake, FLIPR); assay type: cell-based; details: THP-1 cells
T1 construct: endogenous in cells; host or cells: THP-1 cells
T1 sequence (Q99572 1-595): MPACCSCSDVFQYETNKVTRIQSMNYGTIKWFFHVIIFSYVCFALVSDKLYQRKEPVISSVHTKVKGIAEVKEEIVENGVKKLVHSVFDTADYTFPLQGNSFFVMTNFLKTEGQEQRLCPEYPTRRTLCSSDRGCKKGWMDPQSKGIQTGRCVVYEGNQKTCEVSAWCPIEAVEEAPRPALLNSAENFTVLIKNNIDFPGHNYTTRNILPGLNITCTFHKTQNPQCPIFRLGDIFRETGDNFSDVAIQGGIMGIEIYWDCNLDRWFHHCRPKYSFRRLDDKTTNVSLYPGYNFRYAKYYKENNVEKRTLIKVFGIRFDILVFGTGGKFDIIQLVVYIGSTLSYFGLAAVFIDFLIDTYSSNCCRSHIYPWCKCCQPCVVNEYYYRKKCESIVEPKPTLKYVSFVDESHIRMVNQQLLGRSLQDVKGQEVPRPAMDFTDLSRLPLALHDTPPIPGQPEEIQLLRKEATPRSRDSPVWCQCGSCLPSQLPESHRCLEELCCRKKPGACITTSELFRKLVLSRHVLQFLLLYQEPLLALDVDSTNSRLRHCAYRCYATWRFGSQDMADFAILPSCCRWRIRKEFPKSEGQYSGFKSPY
Protocol: P2X7 Mediated Pore Formation. Activation of the P2X7 receptor induces nonspecific pore formation and eventually cell lysis (Verhoef et al., The Journal of Immunology, Vol. 170, pages 5728-5738, 2003). Accordingly, the inhibitory activity of the antagonists of the present invention was determined by their capacity to inhibit the agonist-induced pore formation using the fluorescent dye YO-PRO (MW=629) and Fluorescence Imaging Plate Reader (FLIPR, Molecular Devices, Sunnydale, Calif.) in THP-1 cells. […] The YO-PRO iodide dye (1 mM in DMSO) was diluted to a final concentration of 2 μM in PBS (w/o Mg^2+ or Ca^2+) and then placed on the cells immediately prior to the agonist addition. Since the THP-1 cells are a non-adherent cell line, the cells were washed in PBS and loaded with the dye in a conical tube prior to spinning the cells onto poly-lysine-coated black-walled 96-well plates, which were utilized to reduce light scattering. […] The intensity of the fluorescence was captured by the CCD camera every 15 seconds for the first 10 minutes of agonist exposure followed by every 20 seconds for an additional 50 minutes with the data being digitally transferred to an interfaced PC. The exposure setting of the camera was 0.25 sec with an f-stop setting of 2. […]

| EC70 value for agonist activation (P2X7 receptor) [µM] | melting point [°C] | Compound |
| --- | --- | --- |
| 50 | – | benzoylbenzoic ATP [BzATP] |
| – | 180 to 181 | Cc1ncccc1NC(=NC#N)NC(NC(=O)Cc1ccc(Cl)cc1)C(C)(C)C (stereo not shown) [Example 2, 2-(4-chlorophenyl)-N-[1-({(cyanoimino)[(2-methyl-3-pyridinyl)amino]methyl}amino)-2,2-dimethylpropyl]acetamide] |
| – | 135 to 136 | COc1ccc(CC(=O)NC(NC(=NC#N)Nc2ccccc2Cl)C(C)(C)C)cc1OC (stereo not shown) [Example 20, N-(1-{[[(2-chlorophenyl)amino](cyanoimino)methyl]amino}-2,2-dimethylpropyl)-2-(3,4-dimethoxyphenyl)acetamide] |
| – | 75 to 77 | Cc1ccc(CC(=O)NC(NC(=NC#N)Nc2cccnc2C)C(C)(C)C)cc1F (stereo not shown) [Example 4, N-[1-({(cyanoimino)[(2-methyl-3-pyridinyl)amino]methyl}amino)-2,2-dimethylpropyl]-2-(3-fluoro-4-methylphenyl)acetamide] |
